Read-outs that look alike come from different tables or passages of the source.
Experiments:
Type in all cases: cell-based
[1] = tested on: breast cancer cell line MDA-MB-231; assay: WST-1 cell viability analysis, MDA-MB-231; settings: Homo sapiens
[2] = tested on: HeLa (Cervix Adenocarcinoma); assay: WST-1 cell viability analysis, HeLa; settings: Homo sapiens
Procedure: (§1) The cell numbers were counted and reseed as 2×10^6 in cell culture plate/flask. Then, the culture medium were added to a volume of 10 ml, and the cells were cultured for 2-3 days. Then, the cells were suspended for loading into 96-well plates. The number of cells was 3000 and the volume of the culture medium was 100 μl each well.
(§2) Removing the original culture medium from 96-well plate. Then add 100 μl of commercially drug at a concentration of 10 μM per well. After 72 hours, add the diluted WST-1 reagent to the well with 100 μl/well, and the diluted WST-1 reagent was acquired from the dilution of 9:1 medium and WST-1 stock reagent. Finally, the total volume of each well was 200 μl/well. Culture the 96-well plate at 37° C. for 30 to 90 minutes. Detecting and calculate the survival rate of each cancer cells with an ELISA reader at OD450 nm.

[3] = tested on: A375 (amelanotic melanoma); assay: WST-1 cell viability analysis, A375; settings: Homo sapiens, A-375, 10 μM, 72 hours, read-out: viability (survival rate) of A375 cells
[4] = WST-1 cell viability analysis, HEK293; settings: human
Procedure: as §1, §2

[5] = WST-1 cell viability analysis, BEAS-2B; settings: human
Excerpt: (§3) Subculture the different types of cancer cell lines. The cancer cells includes lung cancer, gastric cancer, hepatic cancer, colon cancer, skin cancer, cervical cancer, prostate cancer, bladder cancer, breast cancer, leukemia, pancreatic cancer, ovarian cancer, tongue cancer, osteosarcoma, and renal cancer. The normal cells used in the control group included kidney cell (HEK293) and human bronchial epithelial cell line BEAS-2B (as shown in Table 1).
as §1, §2

[6] = tested on: pancreatic cancer cell line BxPC-3; assay: WST-1 cell viability analysis, BxPC-3; settings: Homo sapiens, BXPC-3, 10 μM, 72 hours, read-out: viability (survival rate) of BxPC-3 cells
Procedure: as §1, §2

[7] = tested on: bladder cancer cell line T24; assay: WST-1 cell viability analysis, T24; settings: Homo sapiens
Procedure: as §1
Removing the original culture medium from 96-well plate. Then add 100 μl of commercially drug at a concentration of 10 μM per well. After 72 hours, add the diluted WST-1 reagent to the well with 100 μl/well, and the diluted WST-1 reagent was acquired from the dilution of 9:1 medium and WST-1 stock reagent. Finally, the total volume of each well was 200 μl/well. […] Detecting and calculate the survival rate of each cancer cells with an ELISA reader at OD450 nm.

[8] = tested on: H1650 (lung adenocarcinoma); assay: WST-1 cell viability analysis, H1650; settings: Homo sapiens
Procedure: as §1, §2

[9] = tested on: A549 (lung adenocarcinoma); assay: WST-1 cell viability analysis, A549; settings: Homo sapiens
Procedure: as §1, §2

[10] = tested on: cancers cell lines; assay: Inhibition test on all kinds of cancer cell lines (overall statement); settings: several / various cancer cell lines, Table 18, FIG. 1
Procedure: as §1, §2
(§4) As a result in the experiments of the present invention.

[11] = tested on: normal cells; assay: Toxicity to normal cells (overall statement)
Excerpt: as §3, §2

[12] = tested on: SAS (Tongue squamous cell carcinoma); assay: WST-1 cell viability analysis, SAS
Procedure: as §1, §2

[13] = tested on: prostate cancer cell line PC-3; assay: WST-1 cell viability analysis, PC-3; settings: Homo sapiens
Procedure: as §1, §2

[14] = tested on: bladder cancer cells; assay: Summary of cell viability, bladder cancer; settings: 72 hours, summary over the bladder cancer cell lines, read-out: Inhibitory effect, bladder cancer
Procedure: as §1, §2, §4

[15] = tested on: BCC (basal cell carcinoma); assay: WST-1 cell viability analysis, BCC; settings: 72 hours, read-out: viability (survival rate) of BCC cells
[16] = tested on: AGS (Gastric Adenocarcinoma); assay: WST-1 cell viability analysis, AGS; settings: Homo sapiens
Procedure: as §1, §2

With `CC1=C(C(=O)OC(C)C)C(c2cccc([N+](=O)[O-])c2)C(C(=O)OC2CN(C(c3ccccc3)c3ccccc3)C2)=C(N)N1` (centres unmarked) [Azelnidipine] the viability at 10 µM ([1]; MDA-MB-231, 10 μM, 72 hours, run 0612-10 min, read-out: viability (survival rate) of MDA-MB-231 cells) was 70.3%, the viability at 10 µM ([1]; MDA-MB-231, 10 μM, 72 hours, run 0614-10 min, read-out: viability (survival rate) of MDA-MB-231 cells) was 89.7% and the viability at 10 µM ([1]; MDA-MB-231, 72 h, 10 μM, average of the 3 printed tests, read-out: average viability of MDA-MB-231 cells) was 86.9%. It also gave a viability at 10 µM ([2]; 72 h, average of 4 tests, read-out: Average viability of HeLa cells) of 87%, a viability at 10 µM ([2]; 72 hours, run 0524-10 min, read-out: viability (survival rate) of HeLa cells) of 70.4% and a viability at 10 µM ([2]; 72 hours, run 0526-10 min, read-out: viability (survival rate) of HeLa cells) of 93.7%. For the same compound, the viability at 10 µM ([2]; 72 hours, run 0529-10 min, read-out: viability (survival rate) of HeLa cells) was 81.4%, the viability at 10 µM ([2]; 72 hours, run 0531-10 min, read-out: viability (survival rate) of HeLa cells) was 103% and the viability at 10 µM ([3]; run 0602-30 min) was 124%. It also gave a viability at 10 µM ([3]; run 0607-10 min) of 76%, a viability at 10 µM ([3]; run 0609-10 min) of 105% and a viability at 72 h, 10 µM ([4]; HEK293 cells (normal kidney cell line), summary (HEK293), read-out: Inhibitory effect, Normal cell: Kidney cell) of 94.2%. It also gave a viability at 72 h, 10 µM ([4]; HEK293 normal kidney cells, average of 4 tests, read-out: Average viability of HEK293 cells) of 94.2%, a viability at 72 h, 10 µM ([5]; BEAS-2B bronchial epithelial cells, run 0510-10 min, read-out: viability (survival rate) of BEAS-2B cells) of 61.3% and a viability at 72 h, 10 µM ([5]; BEAS-2B cells (normal bronchial epithelial cell line), average of 4 tests, read-out: average viability of BEAS-2B cells) of 77.5%. It also gave a viability at 72 h, 10 µM ([5]; BEAS-2B cells (normal bronchial epithelial cell line), run 0512-10 min, read-out: viability (survival rate) of BEAS-2B cells) of 61.8%, a viability at 72 h, 10 µM ([5]; BEAS-2B cells (normal bronchial epithelial cell line), run 0515-10 min, read-out: viability (survival rate) of BEAS-2B cells) of 102% and a viability at 72 h, 10 µM ([5]; BEAS-2B cells (normal bronchial epithelial cell line), run 0517-10 min, read-out: viability (survival rate) of BEAS-2B cells) of 85.4%. For the same compound, the viability at 10 µM ([6]; run 3-4-30 min) was 77.5%, the viability at 10 µM ([6]; run 3-7-3-30 min) was 79.9% and the viability at 10 µM ([6]; run 3-7-4-30 min) was 51%. For the same compound, the viability at 10 µM ([6]; run 3-7-7-30 min) was 50%, the viability at 10 µM ([7]; T-24, 10 μM, 72 hours, run 1-30 min, read-out: viability (survival rate) of T24 cells) was 110% and the viability at 10 µM ([7]; T-24, 10 μM, 72 hours, run 2-20 min, read-out: viability (survival rate) of T24 cells) was 75.3%. For the same compound, the viability at 10 µM ([7]; T-24, 10 μM, 72 hours, run 3-20 min, read-out: viability (survival rate) of T24 cells) was 30.4%, the viability at 10 µM ([7]; T-24, 10 μM, 72 hours, run 4-20 min, read-out: viability (survival rate) of T24 cells) was 102% and the viability at 10 µM ([7]; T-24, 72 h, 10 μM, average of 4 tests, read-out: average viability of T24 cells) was 79.5%. It also gave a viability at 10 µM ([8]; NCI-H1650, 10 μM, 72 hours, run 1-10 min, read-out: viability (survival rate) of H1650 cells) of 28.8%, a viability at 10 µM ([8]; NCI-H1650, 10 μM, 72 hours, run 2-20 min, read-out: viability (survival rate) of H1650 cells) of 26.5% and a viability at 10 µM ([8]; NCI-H1650, 10 μM, 72 hours, run 3-20 min, read-out: viability (survival rate) of H1650 cells) of 40.5%. The viability at 10 µM ([8]; NCI-H1650, 10 μM, 72 hours, run 4-20 min, read-out: viability (survival rate) of H1650 cells) was 62.7%, the viability at 10 µM ([8]; NCI-H1650, 72 h, 10 μM, average of 4 tests, read-out: Average viability of H1650 cells) was 39.7% and the viability at 10 µM ([9]; A549, 10 μM, 72 hours, run 0524-10 min, read-out: viability (survival rate) of A549 cells) was 81.4%. It also gave a viability at 10 µM ([9]; A549, 10 μM, 72 hours, run 0526-10 min, read-out: viability (survival rate) of A549 cells) of 119%, a viability at 10 µM ([9]; A549, 10 μM, 72 hours, run 0529-10 min, read-out: viability (survival rate) of A549 cells) of 69.7% and a viability at 10 µM ([9]; A549, 10 μM, 72 hours, run 0531-10 min, read-out: viability (survival rate) of A549 cells) of 80.2%. For the same compound, the viability at 10 µM ([9]; A549, 72 h, 10 μM, average of 4 tests, read-out: Average viability of A549 cells) was 87.5%, the “inhibitory effect on cancer cell lines (in words)” value [10] was “significant inhibitory effect” and the “toxicity to normal cells (in words)” value [11] was “no toxicity or had little toxicity”. The viability at 10 µM ([12]; 72 h, average of 4 tests, read-out: Average viability of SAS cells) was 76.8%, the viability at 10 µM ([12]; 72 h, summary (SAS), read-out: Inhibitory effect, tongue cancer) was 76.8% and the viability at 10 µM ([12]; 72 hours, run 6-26-10 min, read-out: viability (survival rate) of SAS cells) was 69.9%. For the same compound, the viability at 10 µM ([12]; 72 hours, run 6-28-10 min, read-out: viability (survival rate) of SAS cells) was 66%, the viability at 10 µM ([12]; 72 hours, run 6-30-10 min, read-out: viability (survival rate) of SAS cells) was 66.7% and the viability at 10 µM ([12]; 72 hours, run 7-3-10 min, read-out: viability (survival rate) of SAS cells) was 105%. For the same compound, the viability at 10 µM ([13]; PC-3, 10 μM, 72 hours, run PC-3-0524-10 min, read-out: viability (survival rate) of PC-3 cells) was 122%, the viability at 10 µM ([13]; PC-3, 10 μM, 72 hours, run PC-3-0526-10 min, read-out: viability (survival rate) of PC-3 cells) was 149% and the viability at 10 µM ([13]; PC-3, 10 μM, 72 hours, run PC-3-0529-10 min, read-out: viability (survival rate) of PC-3 cells) was 110%. The viability at 10 µM ([13]; PC-3, 10 μM, 72 hours, run PC-3-0531-10 min, read-out: viability (survival rate) of PC-3 cells) was 102%, the viability at 10 µM ([13]; PC-3, 72 h, 10 μM, average of 4 tests, read-out: Average viability of PC-3 cells) was 121% and the viability at 10 µM [14] was 97.3%. It also gave a viability at 10 µM ([15]; run 0602-30 min) of 77.7%, a viability at 10 µM ([15]; run 0605-10 min) of 127% and a viability at 10 µM ([15]; run 0607-10 min) of 95.7%. For the same compound, the viability at 10 µM ([16]; 72 h, average of 4 tests, read-out: average viability of AGS cells) was 90.2%, the viability at 10 µM ([16]; 72 hours, run 0510-10 min, read-out: viability (survival rate) of AGS cells) was 120% and the viability at 10 µM ([16]; 72 hours, run 0512-10 min, read-out: viability (survival rate) of AGS cells) was 124%. The viability at 10 µM ([16]; 72 hours, run 0515-10 min, read-out: viability (survival rate) of AGS cells) was 42.1% and the viability at 10 µM ([16]; 72 hours, run 0517-10 min, read-out: viability (survival rate) of AGS cells) was 74.3%.
